The assay deals with MAP kinase cascade activating protein according to SEQ ID NO: 4, 6, 12, 16, 18, 22, 26, 28, 30, 44, 50, 52, 60, 68, 72, 104, 110, 112, 116, 122, 132, 142, 146 …. Briefly: Screening for inhibitors in 293-EBNA reporter systems expressing MAP kinase cascade activating proteins. It is filed as cell-based, human. As to conditions: compound 10 μM; 50 ng expression plasmid; 24 hours; all 27 SEQ ID NO systems. As to the method:
(in the presence of 5% CO2). Then, using FuGENE6 (Roche), 50 ng of each of the expression plasmids obtained in Example 2 above which comprise a gene encoding the MAP kinase cascade activating protein according to SEQ ID NO: 4, 6, 12, 16, 18, 22, 26, 28, 30, 44, 50, 52, 60, 68, 72, 104, 110, 112, 116, 122, 132, 142, 146, 148, 150, 152 or 154 were respectively co-transfected in a well with 60 ng of pFR-Luc ([…]), 0.25 ng of pFA2-Elk1 ([…]), 5 ng of pcDNA 3.1 (+) (INVITROGEN) into which human p38 gene had been incorporated and 30 ng of pcDNA 3.1 (+) (INVITROGEN) into which human JNJ1 β 1 gene had been incorporated. The method used for introduction was in accordance with the attached protocol. After culturing for 2 hours at 37° C., any one of 1000 types of compound that were held in stock, was added to a final concentration of 10 μM per well, and after further culturing for 24 hours at 37° C., reporter activity, which reflects MAP kinase cascade activition, was measured by Picagene LT2 (purchased from Toyo Ink Manufacturing) in accordance with the manufacturer's instructions. Using a well to which no compound was added as a control, compounds were screened to identify a compound which reduced reporter activity in the well to which it was added to 50% or lower. […]

As to `CN[C@@H]1C[C@H]2O[C@@](C)([C@@H]1OC)n1c3ccccc3c3c4c(c5c6ccccc6n2c5c31)C(=O)NC4` [staurosporine], the “reporter activity relative to control well to which no compound was added” value is listed as no more than 50%.

The values above are taken from patent US20030092037A1, “Elk1 phosphorylation related gene” (priority 2001, published 2003).
